Inconclusive results and toxic doses are left out. Cut-off read from the data, not from the text of the source: active = T/C of 150% or more; inactive = T/C below 125%.
Tested on: L1210 leukemia ip in BDF1 mice, survival T/C
Assay: NCI In Vivo Anticancer Drug Screen. Data for tumor model L1210 Leukemia (intraperitoneal) in B6D2F1 (BDF1) mice
Settings: endpoint: mean survival time, higher = longer survival
Summary of the method: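 Tumor was transplanted into mice, which were then dosed with test compound or vehicle alone. Survival was recorded for each group, and the treated figure was expressed relative to the control figure.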

[1] = dose: 100.0 mg/kg/injection, schedule: Q01DX001 (ip), vehicle: other
[2] = dose: 100.0 mg/kg/injection, schedule: Q01DX009 (ip), vehicle: saline with Tween-80
[3] = dose: 200.0 mg/kg/injection, schedule: Q01DX001 (ip), vehicle: other
[4] = dose: 200.0 mg/kg/injection, schedule: Q01DX009 (ip), vehicle: saline with Tween-80
[5] = dose: 400.0 mg/kg/injection, schedule: Q01DX001 (ip), vehicle: other
[6] = dose: 400.0 mg/kg/injection, schedule: Q01DX009 (ip), vehicle: saline with Tween-80
[7] = dose: 100.0 mg/kg/injection, schedule: Q01DX001 (ip), vehicle: saline
[8] = dose: 100.0 mg/kg/injection, schedule: Q01DX009 (ip), vehicle: Klucel (hydroxypropylcellulose) (HPC)
[9] = dose: 100.0 mg/kg/injection, schedule: Q01DX009 (ip), vehicle: saline
[10] = dose: 100.0 mg/kg/injection, schedule: Q04DX003 (ip), vehicle: Klucel (hydroxypropylcellulose) (HPC)
[11] = dose: 200.0 mg/kg/injection, schedule: Q01DX001 (ip), vehicle: saline
[12] = dose: 200.0 mg/kg/injection, schedule: Q01DX009 (ip), vehicle: Klucel (hydroxypropylcellulose) (HPC)
[13] = dose: 200.0 mg/kg/injection, schedule: Q01DX009 (ip), vehicle: saline
[14] = dose: 200.0 mg/kg/injection, schedule: Q04DX003 (ip), vehicle: Klucel (hydroxypropylcellulose) (HPC)
[15] = dose: 400.0 mg/kg/injection, schedule: Q01DX001 (ip), vehicle: saline
[16] = dose: 400.0 mg/kg/injection, schedule: Q01DX009 (ip), vehicle: Klucel (hydroxypropylcellulose) (HPC)
[17] = dose: 400.0 mg/kg/injection, schedule: Q01DX009 (ip), vehicle: saline
[18] = dose: 400.0 mg/kg/injection, schedule: Q04DX003 (ip), vehicle: Klucel (hydroxypropylcellulose) (HPC)
[19] = dose: 100.0 mg/kg/injection, schedule: Q04DX002 (ip), vehicle: Klucel (hydroxypropylcellulose) (HPC)
[20] = dose: 200.0 mg/kg/injection, schedule: Q04DX002 (ip), vehicle: Klucel (hydroxypropylcellulose) (HPC)
[21] = dose: 400.0 mg/kg/injection, schedule: Q04DX002 (ip), vehicle: Klucel (hydroxypropylcellulose) (HPC)
[22] = dose: 100.0 mg/kg/injection, schedule: Q04DX003 (ip), vehicle: saline
[23] = dose: 200.0 mg/kg/injection, schedule: Q04DX003 (ip), vehicle: saline
[24] = dose: 400.0 mg/kg/injection, schedule: Q04DX003 (ip), vehicle: saline
[25] = dose: 100.0 mg/kg/injection, schedule: Q01DX001 (ip), vehicle: carboxymethylcellulose (CMC)
[26] = dose: 200.0 mg/kg/injection, schedule: Q01DX001 (ip), vehicle: carboxymethylcellulose (CMC)
[27] = dose: 400.0 mg/kg/injection, schedule: Q01DX001 (ip), vehicle: carboxymethylcellulose (CMC)
[28] = dose: 100.0 mg/kg/injection, schedule: Q04DX003 (ip), vehicle: saline with Tween-80
[29] = dose: 200.0 mg/kg/injection, schedule: Q04DX003 (ip), vehicle: saline with Tween-80
[30] = dose: 400.0 mg/kg/injection, schedule: Q04DX003 (ip), vehicle: saline with Tween-80

Measured: T/C

CNC(=O)NNC(=O)CNC(=O)Nc1cccc(C(F)(F)F)c1
inactive: dose: 12.5 mg/kg/injection, schedule: Q01DX009 (ip), vehicle: Klucel (hydroxypropylcellulose) (HPC) 94 % of control | dose: 25.0 mg/kg/injection, schedule: Q01DX009 (ip), vehicle: Klucel (hydroxypropylcellulose) (HPC) 102 % of control | dose: 50.0 mg/kg/injection, schedule: Q01DX009 (ip), vehicle: Klucel (hydroxypropylcellulose) (HPC) 98 % of control

CN(C)S(=O)(=O)c1ccc(NC(=O)CCl)cc1
inactive: [1] 98 % of control | [2] 106 % of control | dose: 100.0 mg/kg/injection, schedule: Q04DX003 (ip), vehicle: other 97 % of control | [3] 110 % of control | [4] 102 % of control | dose: 200.0 mg/kg/injection, schedule: Q04DX003 (ip), vehicle: other 103 % of control | [5] 93 % of control | [6] 100 % of control | dose: 400.0 mg/kg/injection, schedule: Q04DX003 (ip), vehicle: other 98 % of control

CN(C)[S+](C)(=O)/C=C(/[O-])c1ccccc1 (stereo not given)
inactive: dose: 62.5 mg/kg/injection, schedule: Q01DX001 (ip), vehicle: saline 106 % of control | dose: 125.0 mg/kg/injection, schedule: Q01DX001 (ip), vehicle: saline 102 % of control | dose: 250.0 mg/kg/injection, schedule: Q01DX001 (ip), vehicle: saline 102 % of control

c1cc[n+](CC[n+]2ccccc2)cc1
inactive: [7] 97 % of control | [8] 100 % of control | [9] 101 % of control | [10] 107 % of control | [11] 103 % of control | [12] 103 % of control | [13] 93 % of control | [14] 101 % of control | [15] 94 % of control | [16] 91 % of control | [17] 90 % of control | [18] 98 % of control

C1SCSCS1
inactive: [19] 104 % of control | [20] 96 % of control | [21] 93 % of control

O=C(NC(=S)Nc1ccccc1Cl)c1ccccc1
inactive: [10] 94 % of control | [14] 96 % of control | [18] 97 % of control

CCOC(=O)c1c(C)oc(=O)c(Br)c1C
inactive: [22] 97 % of control | [23] 100 % of control | [24] 94 % of control

NC(=O)/C=C\c1csc2ccccc12
inactive: [25] 100 % of control | [26] 94 % of control | [27] 94 % of control

O=C(O)CNC(=O)CNC(=O)C(Br)Cc1ccccc1 (stereo not given)
inactive: [8] 98 % of control | [28] 101 % of control | [12] 88 % of control | [29] 95 % of control | [30] 100 % of control

Cc1cc2c3ccccc3nc(C(F)(F)F)n2n1
inactive: [2] 97 % of control | [4] 103 % of control | [6] 95 % of control

NCCCC(=O)O
inactive: [7] 99 % of control | [9] 100 % of control | [22] 103 % of control | [11] 105 % of control | [13] 90 % of control | [23] 98 % of control | [15] 101 % of control | [17] 94 % of control | [24] 101 % of control

NC(=O)NC12CC3CC(CC(C3)C1)C2
inactive: [7] 89 % of control | [11] 89 % of control | [15] 101 % of control

CC(C)CC[n+]1cccc(C(N)=O)c1
inactive: [22] 100 % of control | [23] 110 % of control | [24] 113 % of control

CC(=O)C(CCl)C(C)=O
inactive: dose: 50.0 mg/kg/injection, schedule: Q01DX001 (ip), vehicle: other 102 % of control | [1] 96 % of control | [3] 96 % of control | [5] 96 % of control

CCOC(=O)c1ccc(NC(=S)Nc2ccccc2)cc1N(CC)CC
inactive: [8] 101 % of control | [12] 97 % of control | [16] 104 % of control

Cc1cc(CC(O)(C(F)(F)F)C(F)(F)F)c(C#N)c(=O)[nH]1
inactive: [28] 97 % of control | [29] 97 % of control | [30] 97 % of control

O=C(NCC(S)c1ccc(Cl)cc1)C(F)(F)F (stereo not given)
inactive: [29] 88 % of control | [30] 86 % of control

CCOC(=O)/C(C#N)=C\c1ccc(OCC)c(OCC)c1
inactive: dose: 100.0 mg/kg/injection, schedule: Q01DX Z (ip), vehicle: methylcellulose (MC) 101 % of control | dose: 200.0 mg/kg/injection, schedule: Q01DX Z (ip), vehicle: methylcellulose (MC) 100 % of control

O=C(NC1CCOC1=O)OCc1ccccc1 (stereo not given)
inactive: [2] 94 % of control | [28] 95 % of control | [4] 95 % of control | [29] 91 % of control | [6] 94 % of control | [30] 95 % of control

CC12CCC3=C(OCCO3)C1=CCC1C2CCC2(C)C(O)CCC12 (stereo not given)
inactive: dose: 50.0 mg/kg/injection, schedule: Q01DX001 (sc), vehicle: steriod suspending solution 95 % of control | dose: 100.0 mg/kg/injection, schedule: Q01DX001 (sc), vehicle: steriod suspending solution 91 % of control | dose: 200.0 mg/kg/injection, schedule: Q01DX001 (sc), vehicle: steriod suspending solution 103 % of control | dose: 400.0 mg/kg/injection, schedule: Q01DX001 (sc), vehicle: steriod suspending solution 101 % of control

Clc1ccc(Sc2ncnc3nc[nH]c23)cc1
inactive: [28] 102 % of control | [29] 100 % of control | [30] 105 % of control

CCOC(=O)c1c(N)ssc1=S
inactive: [9] 100 % of control | [22] 102 % of control | [13] 105 % of control | [23] 105 % of control | [17] 105 % of control | [24] 107 % of control

O=C(OCn1ncc2ccc([N+](=O)[O-])cc21)c1ccc(Cl)c(Cl)c1
inactive: [25] 101 % of control | [26] 93 % of control | [27] 95 % of control

CC(=O)C(C#N)c1c(C)cc(C)cc1C (stereo not given)
inactive: dose: 37.5 mg/kg/injection, schedule: Q04DX003 (ip), vehicle: saline 97 % of control | dose: 75.0 mg/kg/injection, schedule: Q01DX001 (ip), vehicle: saline 97 % of control | dose: 75.0 mg/kg/injection, schedule: Q04DX003 (ip), vehicle: saline 92 % of control | dose: 150.0 mg/kg/injection, schedule: Q01DX001 (ip), vehicle: saline 105 % of control | dose: 150.0 mg/kg/injection, schedule: Q04DX003 (ip), vehicle: saline 96 % of control

CC1(C)/C(=C\C(=O)O)C2CCC1C2 (stereo not given)
inactive: [7] 103 % of control | [9] 91 % of control | dose: 100.0 mg/kg/injection, schedule: Q04DX003 (ip), vehicle: acetone 106 % of control | [11] 97 % of control | [13] 90 % of control | dose: 200.0 mg/kg/injection, schedule: Q04DX003 (ip), vehicle: acetone 93 % of control | [15] 105 % of control | [17] 98 % of control | dose: 400.0 mg/kg/injection, schedule: Q04DX003 (ip), vehicle: acetone 89 % of control

NC(=O)c1n[nH]c(C2OCC(O)C2O)c1I (stereo not given)
inactive: dose: 100.0 mg/kg/injection, schedule: Q01DX005 (ip), vehicle: saline 100 % of control | dose: 200.0 mg/kg/injection, schedule: Q01DX005 (ip), vehicle: saline 108 % of control

CCCCCCCCCCCCCCCCCCNC(=O)NC(C)(C)C
inactive: [19] 111 % of control | [20] 100 % of control | [21] 111 % of control

COc1cc(/C=N/NC(=O)c2ccccc2OC)ccc1O
inactive: [8] 97 % of control | [12] 98 % of control | [16] 94 % of control

Reference: PubChem BioAssay AID248 (DTP/NCI, 2004)
